From ChEMBL document CHEMBL1125941, “(2,3)--methylenepenicillanic acid sulfone: synthesis and -lactamase inhibiting properties” (Bioorg Med Chem Lett, 1991)

Legend:
Format in all cases: functional, organism-based
Escherichia coli = assay: Compound was evaluated for the inhibition of Escherichia coli TEM-1 enzyme
Staphylococcus aureus = assay: Compound was evaluated for the inhibition of Staphylococcus aureus penicillinase (PC1)
Enterobacter cloacae = assay: Compound was evaluated for the inhibition of Enterobacter cloacae P99 cephalosporinase

| Compound | IC50 (Escherichia coli) [µM] | IC50 (Staphylococcus aureus) [µM] | IC50 (Enterobacter cloacae) [µM] |
| --- | --- | --- | --- |
| C[C@@]12C[C@]1(C(=O)O)N1C(=O)C[C@H]1S2(=O)=O | 406 | 548 | 12 |
| CC1(C)[C@H](C(=O)O)N2C(=O)C[C@H]2S1(=O)=O [SULBACTAM] | 1.9 | 6.8 | 20 |
| C[C@]12C[C@@]1(C(=O)O)N1C(=O)C[C@H]1S2(=O)=O | 2.5 | 14 | 322 |
